Measurements taken from US10060933B2, “Methods for diagnosis and treatment of amyotrophic lateral sclerosis based on an increased level of interaction between TDP-43 polypeptide and NF-KB P65 polypeptide” (UNIVERSITE LAVAL, priority 2011, dated 2018).

Legend:
[1] = system: ICAM-1 luciferase activity; assay: ICAM1-luc luciferase assay in TNF-α stimulated BV-2 cells; assay type: cell-based, mouse; conditions: vs scrambled siRNA
Experimental: (§1) If correct that TDP-43 acts as a co-activator of p65, then reducing the levels of TDP-43 should attenuate p65 activation. To reduce the expression levels of TDP-43, microglial BV-2 cells were transfected with either TDP-43 siRNA or scrambled siRNA together with 4κB^wt-luc vectors. 72 hrs after transfection some of the cells were either stimulated with LPS (100 ng/ml) or mock stimulated for 12 hrs. […] To examine the effect of reducing TDP-43 levels on NF-κB activation, BV-2 cells were transfected with pCMV-p65 and 4κB^wt-luc vectors. TDP-43 siRNA decreased activation of NF-κB reporter gene in transfected cells. The decrease in NF-κB activation was about 3-fold for 5 ng pCMV-p65 (n=4, p<0.01) and about 2.5-fold for 10 and 20 ng pCMV-p65 (n=4, p<0.05) and 2-fold for 50 ng pCMV-p65 (n=4, p<0.05) as compared to scrambled siRNA transfected cells (FIG. 5B). To examine the physiological significance of TDP-43 inhibition by siRNA, we transfected BV-2 cells with ICAM1-luc vector together with TDP-43 siRNA or scrambled siRNA. 72 hrs after transfection, cells were stimulated with varying concentrations of TNF-α. […] We also tested the effect of TDP-43 siRNA transfected in bone-marrow derived macrophages (BMMs) from normal mice. We compared the level of innate immunity activation when stimulated with LPS.
(§2) BV2 cells were harvested in 120 μl of cell lysis buffer (Promega, Madison, Wis., USA), and an ensuing 1-min centrifugation step (20,000×g) yielded a luciferase-containing supernatant. In both cases aliquots of 20-μl supernatant were tested for luciferase activity (luciferase assay kit, Promega) and for β-galactosidase activity (β-galactosidase assay kit, Promega) to adjust for transfection efficiency.
To selectively prevent TDP-43 expression, we employed the RNA interference technology. A double-stranded RNA (siRNA) was employed to degrade TDP-43 mRNA and thus to limit the available protein. The siRNA experiments were designed and conducted as described earlier^26. […]

[2] = system: bone-marrow derived macrophages (BMMs); assay: Real-time RT-PCR of innate immunity genes in LPS stimulated bone-marrow derived macrophages; assay type: cell-based, mouse; conditions: vs scrambled siRNA
Experimental: as §1
Real-time RT-PCR was performed with a LightCycler 480 (Roche Diagnostics) sequence detection system using LightCycler SYBR Green I at the Quebec genomics Centre, Quebec. Total RNA was extracted from cell culture experiments using Trizol reagent (Invitrogen). Total RNA was treated with DNase (Qiagen, Valencia, Calif., USA) to get rid of genomic DNA contaminations. Total RNA was the quantified using Nanodrop and its purity verified by Bioanalyzer 2100 (Agilent Technologies, Santa Clara, Calif., USA). Gene-specific primers were constructed using the GeneTools (Biotools Inc.) software. 3 genes Atp5, Hprt1 and GAPDH were used as internal control genes. The primers used for the analysis of genes are given in S-Table 2 (Swamp et al. J Exp Med 2011, 208, 2429-2447).
(§3) To selectively prevent TDP-43 expression, we employed the RNA interference technology. A double-stranded RNA (siRNA) was employed to degrade TDP-43 mRNA and thus to limit the available protein. The siRNA experiments were designed and conducted as described earlier^26. The siRNAs directed against the murine TDP-43 mRNA (NM_145556.4) consisted of sequences with symmetrical 3′-UU overhangs using siRNA Target Finder (Ambion, Tex., USA). […] To account for the non-sequence-specific effects, scrambled siRNA was used. The sequence of scrambled siRNA is as follows: 5′-[…]-3′ (SEQ ID NO:19) and 5′-[…]-3′ (SEQ ID NO:20). TDP-43 siRNAs or the scrambled siRNAs were suspended in diethyl […] water to yield desired concentration. For in vitro transfection, cells were plated in 24-well plates and transfected with 0.6 μmol/L siRNAs with 2 μL Lipofectamine 2000 (Invitrogen). The cells were then kept for 72 h in OptiMEM medium (Gibco).

[3] = system: endogenous mouse TDP-43; assay: Western blot of TDP-43 after siRNA transfection of BV-2 cells; assay type: cell-based; conditions: vs scrambled siRNA
Experimental: as §1
To selectively prevent TDP-43 expression, we employed the RNA interference technology. […]

[4] = system: NF-κB; assay: 4κB^wt-luc NF-κB reporter gene assay in BV-2 cells; assay type: cell-based, mouse
Experimental: as §1, §2, §3

TDP-43 siRNA: double-stranded siRNA against murine TDP-43 mRNA: 5′-AGGAAUCAGCGUGCAUAUAUU-3′ (SEQ ID NO:17), 5′-UAUAUGCACGCUGAUUCCUUU-3′ (SEQ ID NO:18) (listed as RNA, chemistry not given here)
decrease in ICAM-1 luciferase activity ([1]; 0.5 ng/ml TNF-α): 2 fold | decrease in ICAM-1 luciferase activity ([1]; 1.0 ng/ml TNF-α): 2.5 fold | decrease in ICAM-1 luciferase activity ([1]; 1.5 ng/ml TNF-α): 2 fold | reduced levels of Cox-2 mRNA [2]: 2 fold | reduced levels of IL-1β mRNA [2]: 2 fold | reduced levels of IL-6 mRNA [2]: 2.5 fold | reduced levels of IP-10 mRNA [2]: 2 fold | reduced levels of TLR2 mRNA [2]: 1.5 fold | reduced levels of TNF-α mRNA [2]: 3 fold | reduced levels of p65 (RELA) mRNA [2]: 3 fold | endogenous mouse TDP-43 levels (western blot) [3]: reduced the endogenous mouse TDP-43 levels significantly | decrease in NF-κB activation (4κB^wt-luc reporter) ([4]; 5 ng pCMV-p65, vs scrambled siRNA): about 3 fold | decrease in NF-κB activation (4κB^wt-luc reporter) ([4]; 10 ng pCMV-p65, vs scrambled siRNA): about 2.5 fold | decrease in NF-κB activation (4κB^wt-luc reporter) ([4]; 20 ng pCMV-p65, vs scrambled siRNA): about 2.5 fold | decrease in NF-κB activation (4κB^wt-luc reporter) ([4]; 50 ng pCMV-p65, vs scrambled siRNA): 2 fold
